In ChEMBL document CHEMBL1134820, “Synthesis of antitumor dendritic imides” (Bioorg Med Chem Lett, 2001):
pIC50: −log10 of the molar value. Each block holds one compound with its values, some of them ahead of it.

Assays:
HT-29 = assay: Cytotoxic effect on human colon carcinoma HT-29 cell line; assay type: functional; conditions: read-out: ID50 (the source's name)
[1] = biological target: Tyrosine-protein kinase Lck (Homo sapiens, UniProt P06239); assay: Inhibition of lck catalytic domain expressed in baculovirus
Sequence of Tyrosine-protein kinase Lck (P06239 whole entry, the tested form may be a part): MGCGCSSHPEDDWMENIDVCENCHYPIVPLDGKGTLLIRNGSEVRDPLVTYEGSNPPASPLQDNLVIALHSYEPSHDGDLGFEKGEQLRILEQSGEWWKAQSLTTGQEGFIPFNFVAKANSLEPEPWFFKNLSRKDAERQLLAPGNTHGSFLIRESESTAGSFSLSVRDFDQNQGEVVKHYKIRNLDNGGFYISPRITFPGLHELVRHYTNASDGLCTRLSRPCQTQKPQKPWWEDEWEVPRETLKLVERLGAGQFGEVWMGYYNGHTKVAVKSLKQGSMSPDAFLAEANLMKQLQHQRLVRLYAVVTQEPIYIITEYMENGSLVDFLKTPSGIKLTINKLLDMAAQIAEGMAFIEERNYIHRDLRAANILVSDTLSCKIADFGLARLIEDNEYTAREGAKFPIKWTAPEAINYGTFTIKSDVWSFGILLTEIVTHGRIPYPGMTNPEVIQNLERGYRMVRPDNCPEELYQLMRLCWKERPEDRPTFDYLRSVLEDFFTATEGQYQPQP

Compound: N#CCCN(CCC#N)CCCN(CCCN(CCC#N)CCC#N)CCCN(CCN)CCCN(CCCN(CCC#N)CCC#N)CCCN(CCC#N)CCC#N
pIC50 (HT-29): < 4.00

Compound: NCCCN(CCCN)CCCN(CCCN(CCCN)CCCN)CCCN(CCCN(CCCN(CCCN)CCCN)CCCN(CCCN)CCCN)CCN1C(=O)c2cccc3cccc(c23)C1=O
pIC50 (HT-29): 4.36

pIC50 [1]: < 4.30
Compound: N#CCCN(CCC#N)CCCN(CCCN(CCC#N)CCC#N)CCCN(CCCN(CCCN(CCC#N)CCC#N)CCCN(CCC#N)CCC#N)CCN1C(=O)c2cccc3cccc(c23)C1=O
pIC50 (HT-29): < 4.00

Compound: N#CCCN(CCC#N)CCCN(CCCN(CCC#N)CCC#N)CCCN(CCCN(CCCN(CCC#N)CCC#N)CCCN(CCC#N)CCC#N)CCN1C(=O)c2cccc3cc(N)cc(c23)C1=O
pIC50 (HT-29): < 4.00

Compound: N#CCCN(CCC#N)CCCN(CCCN(CCC#N)CCC#N)CCCN(CCCN(CCCN(CCC#N)CCC#N)CCCN(CCC#N)CCC#N)CCN1C(=O)c2cccc3cc([N+](=O)[O-])cc(c23)C1=O
pIC50 (HT-29): < 4.00

pIC50 [1]: < 4.30
Compound: N#CCCN(CCC#N)CCCN(CCCN(CCC#N)CCC#N)CCCN(CCCN(CCCN(CCC#N)CCC#N)CCCN(CCC#N)CCC#N)CCN1C(=O)C(c2ccccc2)=C(c2ccccc2)C1=O
pIC50 (HT-29): 4.24

Compound: NCCCN(CCCN)CCCN(CCCN(CCCN)CCCN)CCCN(CCCN(CCCN(CCCN)CCCN)CCCN(CCCN)CCCN)CCN1C(=O)C(c2ccccc2)=C(c2ccccc2)C1=O
pIC50 (HT-29): 4.00

Compound: CN(C)CCN1C(=O)c2cccc3cc(N)cc(c23)C1=O [AMONAFIDE]
pIC50 (HT-29): 4.42

Compound: O=C1c2cccc3cccc(c23)C(=O)N1CCNCCCNCCN1C(=O)c2cccc3cccc(c23)C1=O [ELINAFIDE]
pIC50 (HT-29): 7.85
